# Data: US20240116892A1, “HETEROCYCLIC AMIDE AND UREA COMPOUNDS AS JAK2 INHIBITORS” (Ajax Therapeutics, Inc., priority 2022, published 2024)
# Biological target: JAK2 (JH1 domain-catalytic, Y1007F, Y1008F) kinase (Homo sapiens (Human), UniProt O60674, Y1007F/Y1008F)
# Assay: JAK2 JH1 Domain Binding Assay
# Conditions: qPCR readout
# In short: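 JH1 catalytic domain (Y1007F/Y1008F) expressed as NFkB DNA-binding-domain fusion in HEK293 cells, DNA-tagged. Competition with immobilized biotinylated ligand on streptavidin beads, 1 h at RT in PBS/Tween/BSA/DTT; bound kinase eluted with free ligand and quantified by qPCR.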
# Chain of JAK2 (JH1 domain-catalytic, Y1007F, Y1008F) kinase (O60674 849-1124 Y1007F/Y1008F): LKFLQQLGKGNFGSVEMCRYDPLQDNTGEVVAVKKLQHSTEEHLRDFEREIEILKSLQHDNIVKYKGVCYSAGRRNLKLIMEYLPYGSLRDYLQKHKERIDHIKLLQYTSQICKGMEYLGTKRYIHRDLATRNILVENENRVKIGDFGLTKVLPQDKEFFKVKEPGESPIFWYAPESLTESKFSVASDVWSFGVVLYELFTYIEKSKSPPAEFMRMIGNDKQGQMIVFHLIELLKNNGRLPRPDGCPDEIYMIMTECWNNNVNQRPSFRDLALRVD
row,Kd [µM],Compound
1,< 0.01,"CN(C(=O)Nc1cc(C(F)(F)F)cn(C)c1=O)C12CC(c3cnc4[nH]nc(OC[C@H]5COCCO5)c4c3)(C1)C2 [Example I-158, (R)-1-(3-(3-((1,4-dioxan-2-yl)methoxy)-1H-pyrazolo[3,4-b]pyridin-5-yl)bicyclo[1.1.1]pentan-1-yl)-1-methyl-3-(1-methyl-2-oxo-5-(trifluoromethyl)-1,2-dihydropyridin-3-yl)urea]"
2,< 0.01,"COCc1cc2nc(N3CC[C@H](N(C)C(=O)Nc4cc(C(F)(F)F)cn(C)c4=O)[C@H](C)C3)cnc2[nH]1 [Example I-159-a, 1-((3R,4S)-1-(6-(methoxymethyl)-5H-pyrrolo[2,3-b]pyrazin-2-yl)-3-methylpiperidin-4-yl)-1-methyl-3-(1-methyl-2-oxo-5-(trifluoromethyl)-1,2-dihydropyridin-3-yl)urea]"
3,< 0.01,"COCc1cc2nc(N3CC[C@@H](N(C)C(=O)Nc4cc(C(F)(F)F)cn(C)c4=O)[C@@H](C)C3)cnc2[nH]1 [Example I-159-b, 1-((3S,4R)-1-(6-(methoxymethyl)-5H-pyrrolo[2,3-b]pyrazin-2-yl)-3-methylpiperidin-4-yl)-1-methyl-3-(1-methyl-2-oxo-5-(trifluoromethyl)-1,2-dihydropyridin-3-yl)urea]"
4,0.05 to 1,"COc1c[nH]c2ncc(N3CC[C@H](N(C)C(=O)Nc4cc(C(F)(F)F)cn(C)c4=O)C[C@@H]3C)nc12 [Example I-161-a, 1-((2S,4S)-1-(7-methoxy-5H-pyrrolo[2,3-b]pyrazin-2-yl)-2-methylpiperidin-4-yl)-1-methyl-3-(1-methyl-2-oxo-5-(trifluoromethyl)-1,2-dihydropyridin-3-yl)urea]"
5,0.01 to 0.05,"COc1c[nH]c2ncc(N3CC[C@@H](N(C)C(=O)Nc4cc(C(F)(F)F)cn(C)c4=O)C[C@H]3C)nc12 [Example I-161-b, 1-((2R,4R)-1-(7-methoxy-5H-pyrrolo[2,3-b]pyrazin-2-yl)-2-methylpiperidin-4-yl)-1-methyl-3-(1-methyl-2-oxo-5-(trifluoromethyl)-1,2-dihydropyridin-3-yl)urea]"
6,< 0.01,"COCCOc1n[nH]c2ncc(N3CC[C@H]4[C@H](C3)OCCN4C(=O)Nc3cc(C(F)(F)F)cn(C)c3=O)cc12 [Example I-162-a, (4aS,8aS)-6-(3-(2-methoxyethoxy)-1H-pyrazolo[3,4-b]pyridin-5-yl)-N-(1-methyl-2-oxo-5-(trifluoromethyl)-1,2-dihydropyridin-3-yl)octahydro-1H-pyrido[3,4-b][1,4]oxazine-1-carboxamide]"
7,0.01 to 0.05,"COCCOc1n[nH]c2ncc(N3CC[C@@H]4[C@@H](C3)OCCN4C(=O)Nc3cc(C(F)(F)F)cn(C)c3=O)cc12 [Example I-162-b, (4aR,8aR)-6-(3-(2-methoxyethoxy)-1H-pyrazolo[3,4-b]pyridin-5-yl)-N-(1-methyl-2-oxo-5-(trifluoromethyl)-1,2-dihydropyridin-3-yl)octahydro-1H-pyrido[3,4-b][1,4]oxazine-1-carboxamide]"
8,0.01 to 0.05,"COc1c[nH]c2ncc(N3CC[C@H]4[C@H](C3)OCCN4C(=O)Nc3cc(C(F)(F)F)cn(C)c3=O)nc12 [Example I-163-a, (4aS,8aS)-6-(7-methoxy-5H-pyrrolo[2,3-b]pyrazin-2-yl)-N-(1-methyl-2-oxo-5-(trifluoromethyl)-1,2-dihydropyridin-3-yl)octahydro-1H-pyrido[3,4-b][1,4]oxazine-1-carboxamide]"
9,0.01 to 0.05,"COc1c[nH]c2ncc(N3CC[C@@H]4[C@@H](C3)OCCN4C(=O)Nc3cc(C(F)(F)F)cn(C)c3=O)nc12 [Example I-163-b, (4aR,8aR)-6-(7-methoxy-5H-pyrrolo[2,3-b]pyrazin-2-yl)-N-(1-methyl-2-oxo-5-(trifluoromethyl)-1,2-dihydropyridin-3-yl)octahydro-1H-pyrido[3,4-b][1,4]oxazine-1-carboxamide]"
10,0.05 to 1,"COCc1cc2nc(N3CC[C@H]4[C@H](C3)OCCN4C(=O)Nc3cc(C(F)(F)F)cn(C)c3=O)cnc2[nH]1 [Example I-164-a, (4aS,8aS)-6-(6-(methoxymethyl)-5H-pyrrolo[2,3-b]pyrazin-2-yl)-N-(1-methyl-2-oxo-5-(trifluoromethyl)-1,2-dihydropyridin-3-yl)octahydro-1/-pyrido[3,4-b][1,4]oxazine-1-carboxamide]"
11,0.01 to 0.05,"COCc1cc2nc(N3CC[C@@H]4[C@@H](C3)OCCN4C(=O)Nc3cc(C(F)(F)F)cn(C)c3=O)cnc2[nH]1 [Example I-164-b, (4aR,8aR)-6-(6-(methoxymethyl)-5H-pyrrolo[2,3-b]pyrazin-2-yl)-N-(1-methyl-2-oxo-5-(trifluoromethyl)-1,2-dihydropyridin-3-yl)octahydro-1H-pyrido[3,4-b][1,4]oxazine-1-carboxamide]"

# The remaining lines, values behind:
row,Compound,Kd [µM]
1,"CC(=O)Nc1cnc(C2=CC[C@H](N(C)C(=O)Nc3cc(C(F)(F)F)cn(C)c3=O)CC2)cn1 [Example I-140-b, (R)—N-(5-(4-(1-methyl-3-(1-methyl-2-oxo-5-(trifluoromethyl)-1,2-dihydropyridin-3-yl)ureido)cyclohex-1-en-1-yl)pyrazin-2-yl)acetamide]",< 0.01
2,"Cn1cc(C(F)(F)F)cc(NC(=O)N(C)[C@H]2CC[C@@H](c3cnc4[nH]cc(N5CCOCC5)c4n3)CC2)c1=O [Example I-142, cis-1-methyl-3-(1-methyl-2-oxo-5-(trifluoromethyl)-1,2-dihydropyridin-3-yl)-1-(4-(7-morpholino-5H-pyrrolo[2,3-b]pyrazin-2-yl)cyclohexyl)urea]",0.05 to 1
3,"CNc1c[nH]c2ncc([C@H]3CC[C@H](N(C)C(=O)Nc4cc(C(F)(F)F)cn(C)c4=O)CC3)nc12 [Example I-144, trans-1-methyl-3-(1-methyl-2-oxo-5-(trifluoromethyl)-1,2-dihydropyridin-3-yl)-1-(4-(7-(methylamino)-5H-pyrrolo[2,3-b]pyrazin-2-yl)cyclohexyl)urea]",< 0.01
4,"CNc1c[nH]c2ncc([C@H]3CC[C@@H](N(C)C(=O)Nc4cc(C(F)(F)F)cn(C)c4=O)CC3)nc12 [Example I-145, 1-methyl-3-(1-methyl-2-oxo-5-(trifluoromethyl)-1,2-dihydropyridin-3-yl)-1-((1s,4s)-4-(7-(methylamino)-5H-pyrrolo[2,3-b]pyrazin-2-yl)cyclohexyl)urea]",< 0.01
5,"Cn1cc(C(F)(F)F)cc(NC(=O)N2CCO[C@H]3CN(c4cnc(NC(=O)C5CC5)cn4)CC[C@@H]32)c1=O [Example I-148-a, ((4aS,8aS)-6-(5-(cyclopropanecarboxamido)pyrazin-2-yl)-N-(1-methyl-2-oxo-5-(trifluoromethyl)-1,2-dihydropyridin-3-yl)octahydro-1H-pyrido[3,4-b][1,4]oxazine-1-carboxamide and (4aR,8aR)-6-(5-(cyclopropanecarboxamido)pyrazin-2-yl)-N-(1-methyl-2-oxo-5-(trifluoromethyl)-1,2-dihydropyridin-3-yl)octahydro-1H-pyrido[3,4-b][1,4]oxazine-1-carboxamide]",< 0.01
6,"COc1c[nH]c2ncc(N3CC[C@H](N(C)C(=O)Nc4cc(C(F)(F)F)cn(C)c4=O)[C@@H](F)C3)nc12 [Example I-149, 1-((3S,4S)-3-fluoro-1-(7-methoxy-5H-pyrrolo[2,3-b]pyrazin-2-yl)piperidin-4-yl)-1-methyl-3-(1-methyl-2-oxo-5-(trifluoromethyl)-1,2-dihydropyridin-3-yl)urea]",< 0.01
7,"COc1c[nH]c2ncc(N3CC[C@@H](N(C)C(=O)Nc4cc(C(F)(F)F)cn(C)c4=O)[C@H](F)C3)nc12 [Example I-150, 1-((3R,4R)-3-fluoro-1-(7-methoxy-5H-pyrrolo[2,3-b]pyrazin-2-yl)piperidin-4-yl)-1-methyl-3-(1-methyl-2-oxo-5-(trifluoromethyl)-1,2-dihydropyridin-3-yl)urea]",< 0.01
8,"COc1c[nH]c2ncc(N3CC[C@H](N(C)C(=O)Nc4cc(C(F)(F)F)cn(C)c4=O)[C@H](F)C3)nc12 [Example I-151, 1-((3R,4S)-3-fluoro-1-(7-methoxy-5H-pyrrolo[2,3-b]pyrazin-2-yl)piperidin-4-yl)-1-methyl-3-(1-methyl-2-oxo-5-(trifluoromethyl)-1,2-dihydropyridin-3-yl)urea]",< 0.01
9,"COc1c[nH]c2ncc(N3CC[C@@H](N(C)C(=O)Nc4cc(C(F)(F)F)cn(C)c4=O)[C@@H](F)C3)nc12 [Example I-152, 1-((3S,4R)-3-fluoro-1-(7-methoxy-5H-pyrrolo[2,3-b]pyrazin-2-yl)piperidin-4-yl)-1-methyl-3-(1-methyl-2-oxo-5-(trifluoromethyl)-1,2-dihydropyridin-3-yl)urea]",< 0.01
10,"[2H]C1([2H])C[C@@H](N(C)C(=O)Nc2cc(C(F)(F)F)cn(C)c2=O)[C@H](OC)C([2H])([2H])N1c1cnc2[nH]ncc2c1 [Example I-153-a, 1-((3R,4R)-3-methoxy-1-(1H-pyrazolo[3,4-b]pyridin-5-yl)piperidin-4-yl-2,2,6,6-d4)-1-methyl-3-(1-methyl-2-oxo-5-(trifluoromethyl)-1,2-dihydropyridin-3-yl)urea]",< 0.01
11,"[2H]C1([2H])C[C@H](N(C)C(=O)Nc2cc(C(F)(F)F)cn(C)c2=O)[C@@H](OC)C([2H])([2H])N1c1cnc2[nH]ncc2c1 [Example I-153-b, 1-((3S,4S)-3-methoxy-1-(1H-pyrazolo[3,4-b]pyridin-5-yl)piperidin-4-yl-2,2,6,6-d4)-1-methyl-3-(1-methyl-2-oxo-5-(trifluoromethyl)-1,2-dihydropyridin-3-yl)urea]",0.01 to 0.05
12,"COc1n[nH]c2ncc(C34CC(N(C)C(=O)Nc5cc(C(F)(F)F)cn(C)c5=O)(C3)C4)cc12 [Example I-156, 1-(3-(3-methoxy-1H-pyrazolo[3,4-b]pyridin-5-yl)bicyclo[1.1.1]pentan-1-yl)-1-methyl-3-(1-methyl-2-oxo-5-(trifluoromethyl)-1,2-dihydropyridin-3-yl)urea]",< 0.01
13,"COCCOc1n[nH]c2ncc(C34CC(N(C)C(=O)Nc5cc(C(F)(F)F)cn(C)c5=O)(C3)C4)cc12 [Example I-157, 1-(3-(3-(2-methoxyethoxy)-1H-pyrazolo[3,4-b]pyridin-5-yl)bicyclo[1.1.1]pentan-1-yl)-1-methyl-3-(1-methyl-2-oxo-5-(trifluoromethyl)-1,2-dihydropyridin-3-yl)urea]",< 0.01
